Measured values from ChEMBL document CHEMBL4627343, “High throughput in vivo phenotypic screening for drug repurposing: Discovery of MLR-1023 a novel insulin sensitizer and novel Lyn kinase activator with clinical proof of concept” (Bioorg Med Chem, 2020).

Experiments:
[1] = target: Tyrosine-protein kinase Lyn (Homo sapiens, UniProt P07948); assay: […] of Lyn (unknown origin)
[2] = AUC in ip dosed […] administered twice daily; format: ADME, organism-based; conditions: in vivo
[3] = Cmax in ip dosed […] administered twice daily; format: ADME, organism-based; design: route intraperitoneal; conditions: in vivo
[4] = Tmax in ip dosed […] administered twice daily; format: ADME, organism-based; conditions: in vivo
[5] = Bioavailability in ip dosed […] administered twice daily; format: ADME, organism-based; conditions: in vivo
[6] = Toxicity in ip dosed […] administered twice daily; format: organism-based; conditions: in vivo
[7] = Drug uptake in human brain; format: ADME, tissue-based

Chain of Tyrosine-protein kinase Lyn (P07948 whole entry): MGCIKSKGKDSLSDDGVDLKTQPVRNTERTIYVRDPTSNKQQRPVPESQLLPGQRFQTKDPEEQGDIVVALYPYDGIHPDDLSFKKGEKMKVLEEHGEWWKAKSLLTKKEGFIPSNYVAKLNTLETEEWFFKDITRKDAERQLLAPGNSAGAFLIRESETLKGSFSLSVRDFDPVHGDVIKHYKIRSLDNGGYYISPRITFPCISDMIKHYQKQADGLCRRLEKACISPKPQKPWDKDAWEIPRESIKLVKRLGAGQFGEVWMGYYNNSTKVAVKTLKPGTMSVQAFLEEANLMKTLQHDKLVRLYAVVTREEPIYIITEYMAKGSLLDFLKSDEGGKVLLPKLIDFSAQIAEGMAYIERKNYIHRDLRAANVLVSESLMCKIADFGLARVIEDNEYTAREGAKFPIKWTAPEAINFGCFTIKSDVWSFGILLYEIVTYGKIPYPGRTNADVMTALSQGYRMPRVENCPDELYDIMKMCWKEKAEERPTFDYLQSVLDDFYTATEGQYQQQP

## Cc1cccc(Oc2cnc(=O)[nH]c2)c1 [TOLIMIDONE]
[1]
  EC50: 63 nM
[2]
  AUC: 4780 ng·h/mL
[3]
  Cmax: 6540 ng/mL
[4]
  Tmax: 15 min
[5]
  bioavailability: 53.9%
[6]
  MTD: 100 mg/kg
[7]
  Drug uptake: 1.3%
